Assay results reported in paper PMC9356065, “Novel psoralen derivatives as anti-breast cancer agents and their light-activated cytotoxicity against HER2 positive breast cancer cells” (Scientific Reports, 2022).

Columns and labels:
MDA-MB-231 [1] = assay: MTT cytotoxicity, 48 h, without UVA; format: cell-based; details: Homo sapiens, MDA-MB-231, light or radiation study; for IC50: hormone-independent breast cancer, read-out: Cytotoxic activity MDA-MB-231 IC50
Procedure: (§1) MDA-MB-231 (triple-negative breast cancer) was obtained from M.D. Anderson Cancer Center, Houston, TX, USA). T47-D (hormone-dependent breast carcinoma), SK-BR-3 (human HER2+ breast cancer), and MRC-5 (normal embryonic lung fibroblast) were obtained from the American Type Culture Collection (ATCC, Manassas, VA, USA).
(§2) The cytotoxic effect of tested compounds was evaluated in two breast cancer cell lines, MDA-MB-231 and T47-D. Number of survival cells after exposure to tested compounds for 48 h was determined by MTT assay, as previously described.

T47-D = assay: MTT cytotoxicity, 48 h, without UVA; format: cell-based, human; details: for IC50: hormone-dependent breast cancer, read-out: Cytotoxic activity T47-D IC50; for Selectivity Index (SI): SI = IC50 for MRC-5/IC50 for T47-D
Procedure: (§3) Additionally, the cytotoxicity towards normal cells, human embryonal lung fibroblast cell MRC-5 was also assessed.
as §1, §2

SK-BR-3 [2] = assay: Dark and light-activated (UVA) cytotoxicity, MTT; format: cell-based, human; details: for IC50: Homo sapiens, SK-BR-3, light or radiation study, irradiation with UVA (2.0 J cm^−2), HER2+ breast cancer
Procedure: (§4) The selected compounds were screened for their IC50 values against both HER2+ breast cancer (SK-BR-3), and HER2− breast cancer (MDA-MB-231) in both dark and light-activated conditions (Table 2). Additionally, a negative control study was also performed with SK-BR-3 and MDA-MB-231 cells in the absence of tested compound under UVA irradiation (See Fig S7., Supporting Information).
(§5) SK-BR-3 and MDA-MB-231 cells were seeded into 96-well cell culture plates at 5 × 10^3 cells/well and incubated for 24 h at 37 °C under 5% CO2. After that, the cells were treated with 50 μM of psoralen derivatives in DMEM with 10% FBS and the cells were continued incubation for another 4 h. After incubation, the cells were washed with PBS (3 times) and then irradiated by a 365 nm lamp with the light intensity of 2.0 J cm^−2 for 12.5 min before re-incubation for another 72 h. After incubation, the cell was treated with methylthiazolyldiphenyl-tetrazolium bromide (MTT reagent 200 μL, 0.5 mg mL^−1, Sigma-Aldrich) for 2 h. After reagent removal, DMSO was added to dissolve the formazan product and the cell viabilities were determined through UV–Vis absorption of the resulting formazan at wavelength 560 nm using a microplate reader (BMG Labtech/SPECTROstar Nano). The cell morphology images were captured by using a light microscope (Microscope Nikon, inverted digital) at 20X magnification prior to treating with MTT reagent.

MDA-MB-231 [3] = assay: Dark and light-activated (UVA) cytotoxicity, MTT; format: cell-based; details: Homo sapiens, MDA-MB-231, light or radiation study; irradiation with UVA (2.0 J cm^−2); HER2− breast cancer
Procedure: as §4, §5

SK-BR-3 [4] = assay: Dark and light-activated (UVA) cytotoxicity, MTT; format: cell-based; details: Homo sapiens, dark, HER2+ breast cancer
MDA-MB-231 [5] = assay: Dark and light-activated (UVA) cytotoxicity, MTT; format: cell-based; details: Homo sapiens, dark, HER2− breast cancer
[6] = tested on: circulating estrogen levels; design: method as in PMID 10098905; details: female rats, dose-dependent; cited from earlier work
[7] = MTT cytotoxicity towards normal cells, 48 h; format: cell-based; details: MRC-5 cells (normal embryonic lung fibroblasts), human embryonal lung fibroblast cell, without UVA, read-out: Cytotoxic activity MRC-5 IC50
Procedure: as §3, §1, §2

SK-BR-3 cells = assay: Cell morphology by light microscope; format: cell-based, human; details: 48 h
Procedure: as §5, with “After incubation, the cells were washed with PBS (3 times) and then irradiated by a 365 nm lamp with the light intensity of 2.0 J cm^−2 for 12.5 min before re-incubation for another 72 h.” left out

3T3 = tested on: 3T3; design: method as in PMID 32815004, PMID 20693013; details: cited from earlier work
aromatase (CYP19) = target: T1, aromatase (CYP19) (Homo sapiens, UniProt P11511); assay: Inhibition of aromatase (AIA); format: biochemical; details: at 12.5 µM; I = %inhibition lower than 50%; read-out: Aromatase inhibitory activity %Inhibition
T1 sequence (P11511 1-503): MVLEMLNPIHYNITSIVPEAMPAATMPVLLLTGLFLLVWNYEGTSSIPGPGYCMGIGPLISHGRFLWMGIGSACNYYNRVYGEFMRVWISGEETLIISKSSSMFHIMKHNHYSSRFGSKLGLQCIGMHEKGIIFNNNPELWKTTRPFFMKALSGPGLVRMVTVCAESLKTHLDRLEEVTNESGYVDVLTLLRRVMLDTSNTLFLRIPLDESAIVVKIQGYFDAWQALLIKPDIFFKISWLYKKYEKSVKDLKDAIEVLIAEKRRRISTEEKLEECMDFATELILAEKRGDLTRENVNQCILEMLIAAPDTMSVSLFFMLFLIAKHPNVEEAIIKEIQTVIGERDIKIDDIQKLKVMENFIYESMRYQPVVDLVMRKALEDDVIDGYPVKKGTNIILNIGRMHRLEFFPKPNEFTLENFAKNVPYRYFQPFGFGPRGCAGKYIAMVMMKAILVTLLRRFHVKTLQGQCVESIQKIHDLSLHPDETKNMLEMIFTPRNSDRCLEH
Procedure: Estrogens are the critical risk factor for breast cancer initiation and progression and the aromatase enzyme involves in the final step conversion of androgens to estrogens[21],[22]. […] In this study, the synthesized psoralen derivatives were also tested for aromatase inhibitory activity (AIA) which is considered to be one of chemopreventive mechanisms for hormone dependent breast cancer.
Inhibition of the aromatase was performed using the method designed by Stresser et al.[39].

[8] = Scavenging of diphenyl-picryl-hydrazyl radicals (DPPH); details: screening concentration 250 µM
Text: 1. Chemoprevention activity

[9] = tested on: differentiated HL-60 cells; assay: Inhibition of TPA-induced superoxide anion radical generation (HL-60 Antioxidant); format: cell-based, human; details: Homo sapiens, HL-60; screening concentration 100 µM; read-out: HL-60 Antiox. %Inh
Text: Inhibition of 12-O-tetradecanoylphorbol-13-acetate (TPA)-induced superoxide anion radical generation in differentiated HL-60 cells (HL-60 Antioxidant) TPA-induced superoxide anion radical formation was detected in differentiated HL-60 cells by photometric determination of cytochrome c reduction as previously described by Gerhäuser et al., 2003.ii Superoxide dismutase (SOD;15U) was a positive control. […]

[10] = Inhibition of superoxide radical formation by xanthine/xanthine oxidase (XXO); format: biochemical; details: screening concentration 500 µM
Text: 1. […]

[11] = tested on: ERα activity in MCF-7 cells; design: method as in PMID 31673107; details: read-out: IC50 antagonism of ERα activity in MCF-7 cells; cited from earlier work
[12] = tested on: estrogen receptor in MCF-7 breast cancer cells; design: method as in PMID 23053665; details: MCF-7 breast cancer cells and tamoxifen-resistant clone; cited from earlier work
[13] = Homo sapiens, T47D, light or radiation study, 48 h, without UVA

Structure (SMILES)	IC50 (SK-BR-3 [2]) [µM]	IC50 (MDA-MB-231 [3]) [µM]	IC50 (SK-BR-3 [4]) [µM]	IC50 (MDA-MB-231 [5]) [µM]	circulating estrogen levels [6]	IC50 (MDA-MB-231 [1]) [µM]	IC50 (T47-D; [13]) [µM]	Selectivity Index (SI) (T47-D)	IC50 at 48 h [7] [µM]	other results
COc1c2occc2cc2ccc(=O)oc12 [8-MOP, 8-methoxypsoralen, reference compound]	24.7 ± 3.02	> 100	> 100	> 100	significantly reduced	–	–	–	–	inhibition at 50 µg/mL (MDA-MB-231 [1]; I = %inhibition lower than 50%, read-out: Cytotoxic activity MDA-MB-231 %Inhibition): 6%; inhibition at 50 µg/mL (T47-D; Homo sapiens, T47D, light or radiation study, 48 h, without UVA, I = %inhibition lower than 50%, read-out: Cytotoxic activity T47-D %Inhibition): 16%; dark and light-activated cytotoxicity against SK-BR-3 (%viability screening) (SK-BR-3 [2]; 50 µM, absence and presence of UVA (2.0 J cm^−2), Fig. 3): little to no activity
CS(=O)(=O)CCNCc1ccc(-c2ccc3ncnc(Nc4ccc(OCc5cccc(F)c5)c(Cl)c4)c3c2)o1 [Lapatinib, reference compound]	0.16 ± 0.03	8.6 ± 0.82	25.3 ± 0.99	73 ± 2.53	–	53.37 ± 0.31	9.78 ± 0.46	5.0	48.8 ± 9.45	morphology of SK-BR-3 cells under light activation (SK-BR-3 cells; UVA 2.0 J cm^−2): morphological changes indicating apoptosis; morphology of SK-BR-3 cells under dark condition (SK-BR-3 cells; dark): morphological changes indicating apoptosis; phototoxic potential (3T3 NRU assay) (3T3): phototoxic potential
COc1c2occc2c(NC(=O)c2cccc([N+](=O)[O-])c2)c2ccc(=O)oc12 [3f, N-(9-Methoxy-7-oxo-7H-furo[3,2-g]chromen-4-yl)-3-nitrobenzamide]	–	–	–	–	–	71 ± 2.34	49.8 ± 0.5	1.6	77.3 ± 3.52	inhibition at 12.5 µM (aromatase (CYP19)): 4%; DPPH %Inh [8]: 1%; inhibition at 100 µM [9]: 7%; XXO %Inh [10]: 33%; melting point: 267 to 268 °C
COc1c2ccoc2cc2oc(=O)ccc12 [bergapten]	–	–	–	–	significantly reduced	–	–	–	–	IC50 [11]: 1.2 µM; levels of estrogen receptor [12]: reduced
